Experimental findings from patent US20240376056A1, “PHENYL ACETAMIDE BASED IL-17A MODULATORS AND USES THEREOF” (DiCE Alpha, Inc., priority 2021, published 2024) are described below.

Where only a bound is given, the exact number is not on record here.

The assay deals with T1, IL-17A/A (Homo sapiens, UniProt Q16552).
T1 construct: purchased Genscript Z03228
T1 sequence (Q16552 24-155): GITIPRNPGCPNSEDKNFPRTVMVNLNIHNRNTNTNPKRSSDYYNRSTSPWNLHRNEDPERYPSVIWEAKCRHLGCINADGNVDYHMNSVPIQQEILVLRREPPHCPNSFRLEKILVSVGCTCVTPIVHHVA
The assay can be described thus: HEK-Blue IL-17A/A inhibition assay (SEAP reporter). Type of assay: cell-based. Particulars: HEK-Blue cells (HEK 293 expressing IL-17RA, IL-17RC, Act1); IL-17A/A stimulation; 20 hours; SEAP read at A630; 4-parameter fit. As for the experimental part: The HEK-Blue #NC108637 […]. Cells were grown and prepared for assays according to the manufacturer's instructions. This cell line consists of HEK 293 cells that were designed to expressed IL-17R^A, IL-17RC, and the ActI adapter molecule, the combination of which. when stimulated by IL-17A/A activates a NFtcB promoter and drives expression of a recombinant Secreted Alkaline Phosphatase (SEAP) geneprotein. Media from the cells is then added to a development reagent (Quanti-Blue Substrate, Fisher #NC971 1613), and read at A630.
Compounds were titrated in DMSO. with a top final compound concentration of 10 uM, 1 uM, or 0.3 uM, and added to the cells immediately before adding IL-17A/A (Genscript #Z03228). The cells, compound, and IL-17A/A were then incubated for 20 hours before media was removed for SEAP analysis. The resulting inhibition curve was then analyzed using Graphpad Prism 7.0, and IC50 values were determined using a 4-parameter nonlinear fit. DMSO was added to a universal final concentration of 0.1% to optimze background.
A word on the IC50: it is the concentration needed to halve the response being measured. Turning to `CC(C(=O)NCC(F)(F)F)c1cc(F)c(NC(=O)[C@@H](NC(=O)c2ccnn2C(C)C)C(C2CC2)C2CC2)cc1C#N` (single isomer, unassigned) [Compound 118], the IC50 is above 1000 nM. With `CC(C(=O)NCC(F)(F)F)c1cc(F)c(NC(=O)[C@@H](NC(=O)c2ccnn2C(C)C)C(C2CC2)C2CC2)cc1C(F)(F)F` (single isomer, unassigned) [Compound 120], the IC50 is below 100 nM. As to `CC(C(=O)NCC(F)(F)F)c1cc(F)c(NC(=O)[C@@H](NC(=O)c2ccnn2C(C)C)C(C2CC2)C2CC2)cc1C(F)(F)F` (single isomer, unassigned) [Compound 121], the IC50 is above 1000 nM. In the case of `COc1cc(NC(=O)[C@@H](NC(=O)c2ccnn2C(C)C)C(C2CC2)C2CC2)c(F)cc1C(C)C(=O)NCC(F)(F)F` (single isomer, unassigned) [Compound 122], the IC50 is above 1000 nM. Next, `COc1cc(NC(=O)[C@@H](NC(=O)c2ccnn2C(C)C)C(C2CC2)C2CC2)c(F)cc1C(C)C(=O)NCC(F)(F)F` (single isomer, unassigned) [Compound 123]: below 100 nM. In the case of `COCc1cc(NC(=O)[C@@H](NC(=O)c2ccnn2C(C)C)C(C2CC2)C2CC2)c(F)cc1C(C)C(=O)NCC(F)(F)F` (single isomer, unassigned) [Compound 124], the IC50 is below 100 nM. Next, `COCc1cc(NC(=O)[C@@H](NC(=O)c2ccnn2C(C)C)C(C2CC2)C2CC2)c(F)cc1C(C)C(=O)NCC(F)(F)F` (single isomer, unassigned) [Compound 125]: above 1000 nM. As for `CC(C(=O)NCC(F)(F)F)c1cc(F)c(NC(=O)[C@@H](NC(=O)c2ccnn2C(C)C)C(C2CC2)C2CC2)cc1C1CC1` (single isomer, unassigned) [Compound 126], the figure is 100 to 1000 nM; as for `CC(C(=O)NCC(F)(F)F)c1cc(F)c(NC(=O)[C@@H](NC(=O)c2ccnn2C(C)C)C(C2CC2)C2CC2)cc1C1CC1` (single isomer, unassigned) [Compound 127], below 100 nM; as for `CC(C)C(C(=O)NCC(F)(F)F)c1ccc(NC(=O)[C@@H](NC(=O)c2ccnn2C(C)C)C(C2CC2)C2CC2)c(F)c1` (single isomer, unassigned) [Compound 128], 100 to 1000 nM. As for `CC(C)C(C(=O)NCC(F)(F)F)c1ccc(NC(=O)[C@@H](NC(=O)c2ccnn2C(C)C)C(C2CC2)C2CC2)c(F)c1` (single isomer, unassigned) [Compound 129], the figure is above 1000 nM. Consider `CC(C)n1nccc1C(=O)N[C@H](C(=O)Nc1ccc(C(CN2CCOCC2)C(=O)NCC(F)(F)F)cc1F)C(C1CC1)C1CC1` (single isomer, unassigned) [Compound 130], for which the 50% inhibitory concentration (IC50) is above 1000 nM.

Regarding `CC(C)n1nccc1C(=O)N[C@H](C(=O)Nc1ccc(C(CN2CCOCC2)C(=O)NCC(F)(F)F)cc1F)C(C1CC1)C1CC1` (single isomer, unassigned) [Compound 131], the IC50 was in the range of 100 to 1000 nM. As for `CC(C)n1nccc1C(=O)N[C@H](C(=O)Nc1ccc([C@H](C)C(=O)NC2CNCC2(F)F)cc1F)C(C1CC1)C1CC1` (single isomer, unassigned) [Compound 133], the figure is above 1000 nM.

Take `CC(C)n1nccc1C(=O)N[C@H](C(=O)Nc1ccc([C@H](C)C(=O)NC2CNCC2(F)F)cc1F)C(C1CC1)C1CC1` (single isomer, unassigned) [Compound 134]: the half-inhibitory concentration (IC50) was 100 to 1000 nM. Next, `CC(C(=O)N(CC(N)=O)CC(F)(F)F)c1ccc(NC(=O)[C@@H](NC(=O)c2ccnn2C(C)C)C(C2CC2)C2CC2)c(F)c1` (single isomer, unassigned) [Compound 137]: below 100 nM. As for `CC(C(=O)N(CC(N)=O)CC(F)(F)F)c1ccc(NC(=O)[C@@H](NC(=O)c2ccnn2C(C)C)C(C2CC2)C2CC2)c(F)c1` (single isomer, unassigned) [Compound 138], the figure is above 1000 nM; as for `CC(C)n1nccc1C(=O)N[C@H](C(=O)Nc1ccc(C(C(=O)NCC(F)(F)F)N2CCOCC2)cc1F)C(C1CC1)C1CC1` (single isomer, unassigned) [Compound 140], above 1000 nM. As for `CC(C)n1nccc1C(=O)N[C@H](C(=O)Nc1ccc(C(C(=O)NCC(F)(F)F)N2CCOCC2)cc1F)C(C1CC1)C1CC1` (single isomer, unassigned) [Compound 141], the figure is above 1000 nM; as for `CC(C)n1nccc1C(=O)N[C@H](C(=O)Nc1ccc([C@H](C)C(=O)N2CC(O)CC2C(F)(F)F)cc1F)C(C1CC1)C1CC1` (single isomer, unassigned) [Compound 142], below 100 nM; as for `CC(C)n1nccc1C(=O)N[C@H](C(=O)Nc1ccc([C@H](C)C(=O)N2CC(O)CC2C(F)(F)F)cc1F)C(C1CC1)C1CC1` (single isomer, unassigned) [Compound 143], 100 to 1000 nM. With `CC(C)n1nccc1C(=O)N[C@H](C(=O)Nc1ccc([C@H](C)C(=O)N2CC(O)CC2C(F)(F)F)cc1F)C(C1CC1)C1CC1` (single isomer, unassigned) [Compound 144], the IC50 was above 1000 nM. As for `CC(C)n1nccc1C(=O)N[C@H](C(=O)Nc1ccc([C@H](C)C(=O)N2CC(O)CC2C(F)(F)F)cc1F)C(C1CC1)C1CC1` (single isomer, unassigned) [Compound 145], the figure is above 1000 nM.

For `CC(C)n1nccc1C(=O)N[C@H](C(=O)Nc1ccc([C@H](C)C(=O)N2C(C(N)=O)CCC2C(F)(F)F)cc1F)C(C1CC1)C1CC1` (single isomer, unassigned) [Compound 146], the IC50 is above 1000 nM. Next, `CC(C)n1nccc1C(=O)N[C@H](C(=O)Nc1ccc([C@H](C)C(=O)N2C(C(N)=O)CCC2C(F)(F)F)cc1F)C(C1CC1)C1CC1` (single isomer, unassigned) [Compound 147]: above 1000 nM; `CC(C)n1nccc1C(=O)N[C@H](C(=O)Nc1ccc([C@H](C)C(=O)N2C(C(N)=O)CCC2C(F)(F)F)cc1F)C(C1CC1)C1CC1` (single isomer, unassigned) [Compound 148]: above 1000 nM; `CCC(C(=O)NCC(F)(F)F)c1ccc(NC(=O)[C@@H](NC(=O)c2ccnn2C(C)C)C(C2CC2)C2CC2)c(F)c1` (single isomer, unassigned) [Compound 149]: 100 to 1000 nM.

On to `CCC(C(=O)NCC(F)(F)F)c1ccc(NC(=O)[C@@H](NC(=O)c2ccnn2C(C)C)C(C2CC2)C2CC2)c(F)c1` (single isomer, unassigned) [Compound 150], for which the IC50 was above 1000 nM. Next, `CC(C)n1nccc1C(=O)N[C@H](C(=O)Nc1ccc([C@H](C)C(=O)NC(C2CCOC2)C(F)(F)F)cc1F)C(C1CC1)C1CC1` (single isomer, unassigned) [Compound 151]: 100 to 1000 nM; `CC(C)n1nccc1C(=O)N[C@H](C(=O)Nc1ccc([C@H](C)C(=O)NC(C2CCOC2)C(F)(F)F)cc1F)C(C1CC1)C1CC1` (single isomer, unassigned) [Compound 152]: 100 to 1000 nM. Next, `CCOC(=O)Nc1cc(NC(=O)[C@@H](NC(=O)c2ccnn2C(C)C)C(C2CC2)C2CC2)c(F)cc1C(C)C(=O)NCC(F)(F)F` (single isomer, unassigned) [Compound 158]: below 100 nM. As for `CC(=O)Nc1cc(NC(=O)[C@@H](NC(=O)c2ccnn2C(C)C)C(C2CC2)C2CC2)c(F)cc1C(C)C(=O)NCC(F)(F)F` (single isomer, unassigned) [Compound 159], the figure is below 100 nM.

`COC(=O)Nc1cc(NC(=O)[C@@H](NC(=O)c2ccnn2C(C)C)C(C2CC2)C2CC2)c(F)cc1C(C)C(=O)NCC(F)(F)F` (single isomer, unassigned) [Compound 161]: the IC50 is below 100 nM.

Consider `CC(C(=O)N(C)CC(F)(F)F)c1cc(F)c(NC(=O)[C@@H](NC(=O)c2ccnn2C(C)C)C(C2CC2)C2CC2)cc1N(C)C` (single isomer, unassigned) [Compound 162], for which the IC50 is below 100 nM. Next, `CC(C(=O)NCC(F)(F)F)c1cc(F)c(NC(=O)[C@@H](NC(=O)c2ccnn2C(C)C)C(C2CC2)C2CC2)cc1N(C)C` (single isomer, unassigned) [Compound 163]: below 100 nM; `CNc1cc(NC(=O)[C@@H](NC(=O)c2ccnn2C(C)C)C(C2CC2)C2CC2)c(F)cc1C(C)C(=O)NCC(F)(F)F` (single isomer, unassigned) [Compound 164]: below 100 nM. Next, `CC(=O)NC(C(=O)NCC(F)(F)F)c1ccc(NC(=O)[C@@H](NC(=O)c2ccnn2C(C)C)C(C2CC2)C2CC2)c(F)c1` (single isomer, unassigned) [Compound 167]: 100 to 1000 nM. Turning to `CCn1nccc1C(=O)N[C@H](C(=O)Nc1c(F)cc(C(C)C(=O)NCC(F)(F)F)cc1F)C(C1CC1)C1CC1` (single isomer, unassigned) [Compound 170], the IC50 is above 1000 nM.

With `CCn1nccc1C(=O)N[C@H](C(=O)Nc1c(F)cc(C(C)C(=O)NCC(F)(F)F)cc1F)C(C1CC1)C1CC1` (single isomer, unassigned) [Compound 171], the IC50 lay within 100 to 1000 nM. As for `Cc1cc(NC(=O)[C@@H](NC(=O)c2ccnn2C(C)C)C(C2CC2)C2CC2)c(F)cc1C(C)C(=O)N1CC(O)CC1C(F)(F)F` (single isomer, unassigned) [Compound 172], the IC50 is 100 to 1000 nM.
